Assay results published in patent US20180296523A1, “USE OF POLYMETHOXYLATED FLAVONES TO AMELIORATE CIRCADIAN RHYTHM DISORDERS” (THE BOARD OF REGENTS OF THE UNIVERSITY OF TEXAS SY, priority 2017, published 2018).

What was measured:
[1] = tested on: clock genes and metabolic output genes in mouse liver; assay: Liver gene expression in HFD-fed WT mice (qPCR, Western blot, microarray); format: in vivo
Protocol: For qPCR analysis, cells were split into 6-well plates at an initial density of 3×10^5 cells and incubated for 2-4 days before synchronization (5 μM Fsk or 100 nM Dex) followed by compound treatment. RNA samples were prepared by using PureXtract RNAsol for cDNA synthesis and real-time PCR (GenDEPOT) was performed with a MaxPro3000 Thermocycler (Agilent). qPCR primers used are listed in the table shown in Example 4. Whole cell lysates from cells similarly grown and treated in 60 mm dishes and tissue extracts were prepared as described (Yoo et al., 2013) and subjected to Western blot analysis (GenDEPOT). Antibodies for REV-ERBα (Pierce and Cell Signaling), PER1 (Lee et al., 2001) and other clock proteins (Yoo et al., 2013) were used. Total RNAs prepared from liver tissues from RC-fed, Vehicle-treated and HFD-fed, Vehicle or NOB-treated WT mice for 10 weeks were reverse transcribed into cDNAs, which were then biotin-UTP labeled and hybridized to the Illumina mouse WG-6v2.0 Expression BeadChip. Genes with statistically significant fold change differences was clustered using centered correlation (Cluster 3.0) and then visualized as a heat map on Tree View. Moreover, genes with statistically significant differences derived from microarray analyses were imported into the Ingenuity Pathway Analysis (IPA, http://www.ingenuity.com). In IPA, differentially expressed genes are mapped to genetic networks in the Ingenuity Knowledge Database to generate a set of network and then ranked by score. Heatmaps were generated by using Cluster 3.0 program. ChIP-seq data analysis was conducted as previously described (Koike et al., 2012). The data discussed in this publication have been deposited in NCBI's Gene Expression Omnibus (Edgar et al., 2002) and are accessible through GEO Series accession number GSE78848. To characterize the molecular basis of nobiletin action in HFD-fed WT mice, studies focused on a major metabolic organ, the liver, in which we observed a strong protection by nobiletin was observed. Specifically, total RNAs prepared from liver tissues from RC.Veh and HF.Veh or HF.nobiletin WT mice for 10 weeks were reverse transcribed into cDNAs, which were then biotin-UTP labeled and hybridized to the Illumina mouse WG-6v2.0 Expression BeadChip. The data discussed in this publication have been deposited in the National Center for Biotechnology Information's Gene Expression Omnibus (GEO) and are accessible through GEO Series accession number GSE78848. Real-time qPCR and western blotting analyses of circadian gene expression were conducted as previously described (Yoo et al., 2013). Primers used were as follows: […]

[2] = tested on: peripheral tissue explants from PER2::Luc reporter mice; assay: PER2::Luc reporter rhythms in peripheral tissue explants; format: cell-based, mouse
Protocol: The chemical screen for circadian clock modulators was conducted at the Chemical Genomics Core facility at the UTHSC-H. The in-house chemical library screened consists of compounds from NIH Clinical Collection, NCI collection and Microsource Spectrum Collection. The screening was conducted largely based on the protocol previously described (Chen et al., 2012). Briefly, 15,000 immortalized fibroblast cells from Clock^Δ19/+ heterozygous mice expressing the PER2::Luc bioluminescence reporter were plated into each well of 96-well plates, and incubated for 3-4 d to allow growth to confluency. Cells were then incubated with 5 μM forskolin for 1-2 h followed by the addition of chemical compounds to the plates with robotic arms (Beckman), and then subjected to continuous monitoring over several days in a temperature-controlled EnVision microplate reader (Perkin Elmer). Data analysis was carried out by using the MultiCycle software (Actimetrics) for measurement of period, phase, and amplitude. […] NOB and a structurally related analog Naringin (NAR) were re-ordered from commercial sources including Sigma and GenDEPOT and dose response validation was conducted using PER2::LucSV reporter fibroblast cells which express stronger bioluminescence signals and thus allow precise measurements of circadian clock effects of compounds (Chen et al., 2012). Tissue explant experiments were conducted as described previously (Chen et al., 2012).

[3] = tested on: core clock genes in PER2::LucSV cells; assay: Real-time qPCR and Western blot of clock genes in PER2::LucSV cells; format: cell-based, mouse
Protocol: For qPCR analysis, cells were split into 6-well plates at an initial density of 3×10^5 cells and incubated for 2-4 days before synchronization (5 μM Fsk or 100 nM Dex) followed by compound treatment. RNA samples were prepared by using PureXtract RNAsol for cDNA synthesis and real-time PCR (GenDEPOT) was performed with a MaxPro3000 Thermocycler (Agilent). qPCR primers used are listed in the table shown in Example 4. Whole cell lysates from cells similarly grown and treated in 60 mm dishes and tissue extracts were prepared as described (Yoo et al., 2013) and subjected to Western blot analysis (GenDEPOT). Antibodies for REV-ERBα (Pierce and Cell Signaling), PER1 (Lee et al., 2001) and other clock proteins (Yoo et al., 2013) were used.

RORγt = target: T1, RORγt (Homo sapiens, UniProt P51449); conditions: Huh et al., 2011; cited from earlier work
T1 sequence (P51449 1-497 isoform P51449-2): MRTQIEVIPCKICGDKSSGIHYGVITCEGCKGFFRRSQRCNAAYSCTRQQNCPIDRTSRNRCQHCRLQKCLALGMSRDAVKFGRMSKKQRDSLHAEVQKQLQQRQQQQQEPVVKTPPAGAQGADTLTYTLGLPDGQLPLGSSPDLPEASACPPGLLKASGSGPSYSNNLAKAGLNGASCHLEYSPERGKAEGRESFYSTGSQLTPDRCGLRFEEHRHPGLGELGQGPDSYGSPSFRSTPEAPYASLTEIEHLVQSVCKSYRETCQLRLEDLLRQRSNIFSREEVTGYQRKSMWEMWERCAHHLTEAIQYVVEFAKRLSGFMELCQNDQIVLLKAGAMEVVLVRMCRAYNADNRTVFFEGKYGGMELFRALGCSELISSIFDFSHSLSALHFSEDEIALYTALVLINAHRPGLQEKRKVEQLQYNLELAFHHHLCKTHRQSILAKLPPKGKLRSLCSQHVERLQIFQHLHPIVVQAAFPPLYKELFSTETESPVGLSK

[4] = HF.nobiletin versus HF.Veh mice

## COc1ccc(-c2cc(=O)c3c(OC)c(OC)c(OC)c(OC)c3o2)cc1OC [nobiletin]
[1]; DIO mouse liver, relative to control treatment
  ROR target genes (e.g., Cyp7b1, IkBa, and Gck): induced
[1]; [4]
  circadian clock transcript oscillations in liver: improved circadian clock transcript oscillations
  clock protein rhythms in liver: largely restored clock protein rhythms
[1]; HFD-fed WT mice, qPCR
  transcript expression of Cidec/Fsp27 in liver: reverted back to baseline levels
[1]; liver
  expression of genes involved in gluconeogenesis and glycolysis (e.g., Pdk4 and Pkm2): altered the expression
[2]; PER2::Luc Clock^Δ19/+ reporter mice
  reporter rhythm in pituitary explants: Clock-enhancing effects
[2]; PER2::Luc WT reporter mice
  reporter rhythm in liver explant: Clock-enhancing effects
  reporter rhythm in lung explant: Clock-enhancing effects
  reporter rhythm in pituitary explants: Clock-enhancing effects
[2]; from both Clock^Δ19/+ and WT reporter knockin mice
  PER2::Luc reporter rhythms in peripheral tissue explants: enhanced PER2::Luc reporter rhythms
[3]
  CRY1 protein abundance: slight trend of greater protein abundance
  CRY1 transcript level: markedly reduced transcript level
  Pert transcript levels: moderately altered and reduced at CT20
  expression of other core clock genes: altered
[3]; Western blot
  PER2 proteins: accumulate to greater levels
RORγt
  effect on RORγt in primary screen: activated RORγt
